Assay results from patent US8889667B2 (Agios Pharmaceuticals, Inc, priority 2010, dated 2014).

target: PKM2 (Homo sapiens, UniProt P14618); test: PKM2 Assay (activation, LDH-coupled, absorbance at 340 nm); format: biochemical; details: Table 4
Experimental: • PKM2 stock enzyme solution was diluted in Reaction Buffer • 2 μL of compound was added into each well first, and then 180 μL of the Reaction Mix was added. • Reaction mixture with compound (without ADP) was incubated for 30 minutes at 4° C. • Plates were re-equilibrated to room temperature prior to adding 20 μL ADP to initiate the reaction. • Reaction progress was measured as changes in absorbance at 340 nm wavelength at room temperature (25° C.) Reaction Mix: PKM2 (50 ng/well), ADP (0.7 mM), PEP (0.15 mM), NADH (180 μM), LDH (2 units) in Reaction Buffer Reaction Buffer: 100 mM KCl, 50 mM Tris pH 7.5, 5 mM MgCl2, 1 mM DTT, 0.03% BSA.
Representative compounds of the invention were tested for their ability to activate PKM2 using the above assay. For simplicity, the activation activity of these compounds is represented as an AC50 in Tables 4 and 5 and throughout the application. […] “B” refers to an activator of PKM2 with an EC50 between 100 nM and 500 nM. “C” refers to an activator of PKM2 with an EC50 between 500 nM and 1000 nM. “D” refers to an activator of PKM2 with an EC50 between 1 μM and 20 μM. “E” refers a compound whose activation of PKM2 was not measurable. “N/C” refers to AC50 data not available.

Sequence of PKM2 (P14618 whole entry): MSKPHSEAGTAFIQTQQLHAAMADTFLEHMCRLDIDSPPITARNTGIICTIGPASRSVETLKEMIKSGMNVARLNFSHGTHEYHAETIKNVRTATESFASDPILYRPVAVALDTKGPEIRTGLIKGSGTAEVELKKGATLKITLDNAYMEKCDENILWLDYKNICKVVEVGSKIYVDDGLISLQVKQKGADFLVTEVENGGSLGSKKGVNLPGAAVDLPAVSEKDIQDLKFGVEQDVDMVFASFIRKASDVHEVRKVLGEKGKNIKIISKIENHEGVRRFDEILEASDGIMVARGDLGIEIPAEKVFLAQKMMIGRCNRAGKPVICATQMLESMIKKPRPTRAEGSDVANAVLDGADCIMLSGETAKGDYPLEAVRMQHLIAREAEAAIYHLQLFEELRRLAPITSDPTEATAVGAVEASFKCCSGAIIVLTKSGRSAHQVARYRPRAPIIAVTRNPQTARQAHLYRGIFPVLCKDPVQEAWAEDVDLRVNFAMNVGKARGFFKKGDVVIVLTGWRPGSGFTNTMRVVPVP

Row | SMILES | AC50 [nM]
1 | C[C@@H]1CN(CC2CCOC2)CCN1C(=O)c1ccc(NS(=O)(=O)c2cccc3cccnc23)cc1 (stereo partly drawn) [Compound 115, N-(4-((2R)-2-methyl-4-((tetrahydrofuran-3-yl)methyl)piperazine-1-carbonyl)phenyl)quinoline-8-sulfonamide] | 100 to 500
2 | CC[C@H]1CN(C(C)c2cc(F)cc(F)c2)CCN1C(=O)c1ccc(NS(=O)(=O)c2cccc3cccnc23)cc1 (stereo partly drawn) [Compound 161, N-(4-((2S)-4-(1-(3,5-difluorophenyl)ethyl)-2-ethylpiperazine-1-carbonyl)phenyl)quinoline-8-sulfonamide] | < 100
3 | C[C@@H]1CN(C(=O)c2ccccn2)CCN1C(=O)c1ccc(NS(=O)(=O)c2cccc3cccnc23)cc1 [Compound 103] | 100 to 500
4 | O=C1CN(C(=O)c2ccc(NS(=O)(=O)c3cccc4cccnc34)cc2)CCN1CC1CC1 [Compound 214] | 100 to 500
5 | C[C@H]1CN(CC2CCCCO2)CCN1C(=O)c1ccc(NS(=O)(=O)c2cccc3cccnc23)cc1 (stereo partly drawn) [Compound 156, N-(4-((2S)-2-methyl-4-((tetrahydro-2H-pyran-2-yl)methyl)piperazine-1-carbonyl)phenyl)quinoline-8-sulfonamide] | 500 to 1000
6 | C[C@H]1CN(CC2CCCC2)CCN1C(=O)c1ccc(NS(=O)(=O)c2cccc3cccnc23)cc1Cl [Compound 186, (S)—N-(3-chloro-4-(4-(cyclopentylmethyl)-2-methylpiperazine-1-carbonyl)phenyl)quinoline-8-sulfonamide] | < 100
7 | CC(c1ccc(F)c(F)c1F)N1CCN(C(=O)c2ccc(NS(=O)(=O)c3cccc4cccnc34)cc2)[C@H](C)C1 (stereo partly drawn) [Compound 189, N-(4-((2R)-2-methyl-4-(1-(2,3,4-trifluorophenyl)ethyl)piperazine-1-carbonyl)phenyl)quinoline-8-sulfonamide] | < 100
8 | CC1CN(Cc2c(F)ccc(F)c2F)CC(C)N1C(=O)c1ccc(NS(=O)(=O)c2cccc3cccnc23)cc1 (centres unmarked) [Compound 199, N-(4-(2,6-dimethyl-4-(2,3,6-trifluorobenzyl)piperazine-1-carbonyl)phenyl)quinoline-8-sulfonamide] | < 100
9 | C[C@@H]1CN(C(=O)OCC2CC2)CCN1C(=O)c1ccc(NS(=O)(=O)c2cccc3cccnc23)cc1 [Compound 112, (R)-Cyclopropylmethyl 3-methyl-4-(4-(quinoline-8-sulfonamido)benzoyl)piperazine-1-carboxylate] | < 100
10 | O=C(c1ccc(NS(=O)(=O)c2cccc3cccnc23)cc1)N1CC2CCC(C1)N2CC1CC1 [Compound 221, N-(4-(8-(cyclopropylmethyl)-3,8-diazabicyclo[3.2.1]octane-3-carbonyl)phenyl)quinoline-8-sulfonamide] | < 100
11 | CC1CN(CC2CCOC2)CC(C)N1C(=O)c1ccc(NS(=O)(=O)c2cccc3cccnc23)cc1 (centres unmarked) [Compound 204, N-(4-(2,6-dimethyl-4-((tetrahydrofuran-3-yl)methyl)piperazine-1-carbonyl)phenyl)quinoline-8-sulfonamide] | 500 to 1000
12 | O=C(c1ccc(NS(=O)(=O)c2cccc3cccnc23)cc1)N1CCN(Cc2cc(F)cc(F)c2)C[C@@H]1c1ccccc1 [Compound 181] | 100 to 500
13 | CC(c1cc(F)cc(F)c1)N1CCN(C(=O)c2ccc(NS(=O)(=O)c3cccc4cccnc34)cc2)[C@H](C)C1 (stereo partly drawn) [Compound 135, N-(4-((2R)-4-(1-(3,5-difluorophenyl)ethyl)-2-methylpiperazine-1-carbonyl)phenyl)quinoline-8-sulfonamide] | < 100

same assay, conditions: Table 5

Row | SMILES | AC50 [nM]
14 | COc1ccc(CN2CCN(C(=O)c3ccc(NS(=O)(=O)c4cccc5cccnc45)c(OC(F)(F)F)c3)CC2)c(OC)c1 [Compound 333, N-(4-(4-(2,4-dimethoxybenzyl)piperazine-1-carbonyl)-2-(trifluoromethoxy)phenyl)quinoline-8-sulfonamide] | 500 to 1000
15 | O=C(c1ccc(NS(=O)(=O)c2cccc3cccnc23)c(OC(F)(F)F)c1)N1CCN(Cc2ccc(Cl)cc2F)CC1 [Compound 339, N-(4-(4-(4-chloro-2-fluorobenzyl)piperazine-1-carbonyl)-2-(trifluoromethoxy)phenyl)quinoline-8-sulfonamide] | 100 to 500
16 | O=C(c1ccc(NS(=O)(=O)c2cccc3cccnc23)cc1)N1CCN(C(=O)C2CCCCO2)CC1 (centres unmarked) [Compound 430, N-(4-(4-(tetrahydro-2H-pyran-2-carbonyl)piperazine-1-carbonyl)phenyl)quinoline-8-sulfonamide] | < 100
17 | CC(c1c(F)cccc1F)N1CCN(C(=O)c2ccc(NS(=O)(=O)c3cccc4cccnc34)cc2)CC1 (centres unmarked) [Compound 357, N-(4-(4-(1-(2,6-difluorophenyl)ethyl)piperazine-1-carbonyl)phenyl)quinoline-8-sulfonamide] | < 100
18 | O=C(c1ccc(NS(=O)(=O)c2cccc3cccnc23)c(OC(F)(F)F)c1)N1CCN(Cc2ccc(F)cc2F)CC1 [Compound 369, N-(4-(4-(2,4-difluorobenzyl)piperazine-1-carbonyl)-2-(trifluoromethoxy)phenyl)quinoline-8-sulfonamide] | 500 to 1000
19 | CC(c1ccc(F)c(F)c1F)N1CCN(C(=O)c2ccc(NS(=O)(=O)c3cccc4cccnc34)cc2)CC1 (centres unmarked) [Compound 403, N-(4-(4-(1-(2,3,4-trifluorophenyl)ethyl)piperazine-1-carbonyl)phenyl)quinoline-8-sulfonamide] | < 100
20 | O=C(c1ccc(NS(=O)(=O)c2cccc3cccnc23)cc1F)N1CCN(Cc2cc(F)cc(F)c2)CC1 [Compound 421, N-(4-(4-(3,5-difluorobenzyl)piperazine-1-carbonyl)-3-fluorophenyl)quinoline-8-sulfonamide] | < 100
21 | CC(c1c(F)ccc(F)c1F)N1CCN(C(=O)c2ccc(NS(=O)(=O)c3cccc4cccnc34)cc2)CC1 (centres unmarked) [Compound 404, N-(4-(4-(1-(2,3,6-trifluorophenyl)ethyl)piperazine-1-carbonyl)phenyl)quinoline-8-sulfonamide] | < 100
22 | CC(c1cc(F)c(F)cc1F)N1CCN(C(=O)c2ccc(NS(=O)(=O)c3cccc4cccnc34)cc2)CC1 (centres unmarked) [Compound 395, N-(4-(4-(1-(2,4,5-trifluorophenyl)ethyl)piperazine-1-carbonyl)phenyl)quinoline-8-sulfonamide] | < 100
23 | O=C(c1ccc(NS(=O)(=O)c2cccc3cccnc23)cc1Cl)N1CCN(Cc2cc(F)c(F)cc2F)CC1 [Compound 433, N-(3-chloro-4-(4-(2,4,5-trifluorobenzyl)piperazine-1-carbonyl)phenyl)quinoline-8-sulfonamide] | < 100
24 | CC(c1ccc(F)c(Cl)c1)N1CCN(C(=O)c2ccc(NS(=O)(=O)c3cccc4cccnc34)cc2)CC1 (centres unmarked) [Compound 332, N-(4-(4-(1-(3-chloro-4-fluorophenyl)ethyl)piperazine-1-carbonyl)phenyl)quinoline-8-sulfonamide] | < 100
25 | [2H]C([2H])(c1cc(F)cc(F)c1)N1CCN(C(=O)c2ccc(NS(=O)(=O)c3cccc4cccnc34)cc2)CC1 [Compound 449, N-(4-(4-(3,5-difluorobenzyl)piperazine-1-carbonyl)phenyl)quinoline-8-sulfonamide-(D2)] | < 100
26 | O=C(c1ccc(NS(=O)(=O)c2cccc3cccnc23)c(OC(F)(F)F)c1)N1CCN(Cc2cnccc2C(F)(F)F)CC1 [Compound 366, N-(2-(trifluoromethoxy)-4-(4-((4-(trifluoromethyl)pyridin-3-yl)methyl)piperazine-1-arbonyl)phenyl)quinoline-8-sulfonamide] | 100 to 500
27 | O=C(c1ccc(NS(=O)(=O)c2cccc3cccnc23)cc1)N1CCN(CC2CCC2)CC1 [Compound 419, N-(4-(4-(cyclobutylmethyl)piperazine-1-carbonyl)phenyl)quinoline-8-sulfonamide] | < 100
28 | COc1cc(C(=O)N2CCN(C3(c4ccc(F)cc4)CC3)CC2)ccc1NS(=O)(=O)c1cccc2cccnc12 [Compound 400, N-(4-(4-(1-(4-fluorophenyl)cyclopropyl)piperazine-1-carbonyl)-2-methoxyphenyl)quinoline-8-sulfonamide] | < 100
29 | CC(C)(C1CC1)N1CCN(C(=O)c2ccc(NS(=O)(=O)c3cccc4cccnc34)cc2)CC1 [Compound 438, N-(4-(4-(2-cyclopropylpropan-2-yl)piperazine-1-carbonyl)phenyl)quinoline-8-sulfonamide] | < 100
30 | CC(C)(c1ccccc1)N1CCN(C(=O)c2ccc(NS(=O)(=O)c3cccc4cccnc34)c(OC(F)(F)F)c2)CC1 [Compound 340, N-(4-(4-(2-phenylpropan-2-yl)piperazine-1-carbonyl)-2-(trifluoromethoxy)phenyl)quinoline-8-sulfonamide] | 100 to 500
31 | O=C(c1ccc(NS(=O)(=O)c2cccc3cccnc23)cc1)N1CCN(Cc2ccc(F)cc2)CC1 [Compound 341, N-(4-(4-(4-fluorobenzyl)piperazine-1-carbonyl)phenyl)quinoline-8-sulfonamide] | < 100
32 | O=C(c1ccc(NS(=O)(=O)c2cccc3cccnc23)c(OC(F)(F)F)c1)N1CCN(CC2CC2)CC1 [Compound 301, N-(4-(4-(cyclopropylmethyl)piperazine-1-carbonyl)-2-(trifluoromethoxy)phenyl)quinoline-8-sulfonamide] | 100 to 500
